Assay results: article PMC7283928, “In vitro Mechanistic Exploration of Novel Spiropyrrolidine Heterocyclic Hybrids as Anticancer Agents” (Frontiers in Chemistry, 2020)
Read-outs that look alike come from different tables or passages of the source.

Legend:
[1] = system: Jurkat human T lymphocyte cells; experiment: MTT cell viability and proliferation assay, Jurkat cells; type: cell-based; settings: for IC50: Homo sapiens, MTT
Method: (§1) In order to study the molecular biology effects of synthesized spiropyrrolidine heterocyclic hybrids, we have used the in vitro toxicology tests and for that, two different cell types, each of cancer and non-cancer origin were employed. The non-cancer cell lines include the L929 mouse fibroblasts and MCF10 breast cells, while the cancer cell lines are A549 human alveolar basal epithelial cells and Jurkat human T lymphocyte cells. […] All the biological studies were carried by selecting Camptothecin (CPT) as a positive control and the cells of no treatment as the negative control. The reason for selecting this particular compound as a positive control is that it is a well-known anticancer agent and acts by the mechanism of topoisomerase I inhibition along with the DNA cleavage, subsequent inhibition of litigation, and finally leads to DNA strand breaks. The detailed procedures for the cell culturing and assay protocols were mentioned elaborately in our earlier publications (Bwatanglang et al., [2016a],[b]; Kumar et al., [2018]). Each experiment was repeated thrice and the results expressed as the mean ± standard deviation of all the data values. From the graph, the ^* and ^** corresponds to p < 0.05 and p < 0.01 vs. the untreated-control measurements.
(§2) Also, the loss of viability seems to be increased with an increase in the concentration and incubation period and this provides the preliminary information that the tested compounds are maintaining some levels of therapeutic behavior toward the cancer cells and if it can be guided carefully, can lead to the anticancer activity. […] This difference in the sensitivity of two cancer cells to the same testing compound can be attributed to the changes in the resistive response of each cell types which is supported by the intracellular protein mechanisms (Mohammad et al., [2014]; Bwatanglang et al., [2017]). Since the amount of intracellular proteins secreted by the cells are unique to each individual cell type and so in that way some cells may react very fast as compared to the others. Also, the efficiency of any chemotherapeutic agent is decided by its ability to reduce the cell count at the earliest possible time and in that way we have identified the A549 cells to be the highly responsive cell type to the compound 5e over a 24 h period as compared to the other compounds, cells, and time periods. The visual observation of cells by means of microscopic observation also be confirming for a decrease in the number of cells for the compound 5e treated cells as against the positive control of CPT (30 μM) and negative control of without any treatment (Figures S11, S11a). […] In a general way, our interest is with the therapeutic agent of higher efficiency at the shortest exposure period and so we carried the following mechanistic studies linked to the cell death for the compound 5e at the 24 h exposure period only.

[2] = system: A549 human alveolar basal epithelial cells; experiment: MTT cell viability and proliferation assay, A549 cells; type: cell-based
Method: as §1, §2

A549 cells = experiment: Apoptosis assay (PI / Annexin V-FITC) in A549 cells; type: cell-based, human; settings: for live cells: lower left quadrant; for apoptotic cells: lower right quadrant; for late apoptotic or early necrosis cells: upper right quadrant; for cells experiencing the apoptotic pathway: A549, 48 h incubation (Figure S12)
Method: as §1
The compound 5e induced apoptotic pathway for A549 treated cells over a 24 h period is compared against the positive (CPT, 30 μM) and negative controls and the results are shown in Figure 3. Similarly, the apoptosis study over the 48 h exposure period is shown in the supporting information of Figure S12. As compared to the behavior of cells shown in Figures 3A-1,B-1, the compound 5e treated cells (C-1) are experiencing a significant amount of apoptotic pathway. […] These numbers for the compound 5e treated cells are getting shifted to 39% of live cells, 40% apoptotic, and 18% late apoptotic or early necrosis pathways. The observation of only 9% apoptotic cells for the CPT treated cells while 40% for the 5e treated cells provides a preliminary indication of the way of handling the cancer cells by the compound 5e. Since the CPT acts directly onto the cancer cells and responsible for the accidental or irreversible pathway of reducing the cancer cell number and however, the compound 5e works in a systematic way and induces the cancer cell death almost similar to CPT. […] Since the cells which are experiencing the apoptotic pathway can be reversible and in that way the healthy normal cells can be reverted to their normal stage and at the same time the cancer cells can be molded to the late apoptotic or early necrosis pathways by applying some physiological changes to the cells.
Figure 3 Comparison of the apoptosis assay results for 5e treated cells along with the CPT treated and untreated cells over 24 h period for A549 cells. From the figure, A-1 & A-2 corresponds to the negative control, B-1 & B-2 for the positive control of CPT, and C-1 & C-2 for our testing sample 5e.

caspases in A549 cells = experiment: Caspase activity by fluorescence microscopy in A549 cells; type: cell-based, human; settings: A549, 24 h, 5e at IC50, compared with CPT treated cells (Figure 4B)
Method: as §1, with “The detailed procedures for the cell culturing and assay protocols were mentioned elaborately in our earlier publications (Bwatanglang et al., [2016a],[b]; Kumar et al., [2018]).” left out, “From the graph, the ^* and ^** corresponds to p < 0.05 and p < 0.01 vs. the untreated-control measurements.” left out
Based on the results provided by the apoptotic assay, compound 5e was further tested toward the role of caspases as these are the proteins which get released in response to the specific death stimuli. […] Similarly, the observation of no such green fluorescence in the cytoplasm of cells shown in Figure 4A means that there is no initiation of such pathways in that particular culture.

[3] = MTT cell viability assay, non-cancer L929 cells; type: cell-based; settings: mouse, L929 mouse fibroblast cells (non-cancer)
Method: as §1, with “measurements. […]” for “measurements.”

[4] = MTT cell viability assay, non-cancer MCF10 cells; type: cell-based; settings: human, MCF10 breast cells (non-cancer)
Method: as §1, with “measurements. […]” for “measurements.”

[5] = 24 h incubation, read-out: IC50 μM (24 h) Jurkat
[6] = 48 h incubation, read-out: IC50 μM (48 h) Jurkat
[7] = 24 h incubation, read-out: IC50 μM (24 h) A549
[8] = 48 h incubation, read-out: IC50 μM (48 h) A549
[9] = A549, 24 h, 5e at IC50 (55 μM), CPT 30 μM

Work on `CN1C(Cc2ccc(O)cc2)C([N+](=O)[O-])C(c2ccc(Br)cc2)C12C(=O)c1cccc3cccc2c13` (stereo not shown) [C00002] yielded an IC50 [1, 5] of 82.4 ± 4 µM, an IC50 [1, 6] of 52.2 ± 3.5 µM and an IC50 [2, 7] of 79.5 ± 3.15 µM. For the same molecule, the IC50 [2, 8] was 36.2 ± 4.5 µM.

With `Cc1ccc(C2C([N+](=O)[O-])C(Cc3ccc(O)cc3)N(C)C23C(=O)c2cccc4cccc3c24)cc1` (stereo not shown) [C00004] the IC50 [1, 5] was 78.2 ± 2.6 µM, the IC50 [1, 6] was 47.5 ± 3.8 µM and the IC50 [2, 7] was 82.1 ± 2.55 µM. For the same molecule, the IC50 [2, 8] was 70.2 ± 2.8 µM.

In the case of `CN1C(Cc2ccc(O)cc2)C([N+](=O)[O-])C(c2ccccc2)C12C(=O)c1cccc3cccc2c13` (stereo not shown) [C00001], the IC50 [1, 5] is reported as 65.6 ± 2.1 µM, the IC50 [1, 6] is reported as 31.4 ± 2.3 µM and the IC50 [2, 7] is reported as 84.2 ± 4.2 µM. It also gave an IC50 [2, 8] of 68.5 ± 3.1 µM.

For `COc1ccc(C2C([N+](=O)[O-])C(Cc3ccc(O)cc3)N(C)C23C(=O)c2cccc4cccc3c24)cc1` (stereo not shown) [5e, Spiro[acenaphthene-2′.2-pyrrolidin]-1′-one], the live cells (A549 cells; [9]) was 39%, the apoptotic cells (A549 cells; [9]) was 40% and the “late apoptotic or early necrosis cells” value (A549 cells; [9]) was 18%. The “cells experiencing the apoptotic pathway” value (A549 cells) was 88%, the “caspase release (green fluorescence in cytoplasm)” value (caspases in A549 cells) was “higher than the corresponding cells shown in Figure 4B” and the IC50 [2, 7] was 55.2 ± 2.15 µM. It also gave an IC50 [2, 8] of 20.5 ± 3.6 µM.

For `CN1C(Cc2ccc(O)cc2)C([N+](=O)[O-])C(c2cccc([N+](=O)[O-])c2)C12C(=O)c1cccc3cccc2c13` (stereo not shown) [C00006], the IC50 [1, 5] was 92.5 ± 2.8 µM, the IC50 [1, 6] was 62.5 ± 4.4 µM and the IC50 [2, 7] was 70.7 ± 3.45 µM. For the same molecule, the IC50 [2, 8] was 41.2 ± 2.4 µM.

`CN1C(Cc2ccc(O)cc2)C([N+](=O)[O-])C(c2ccc(Cl)cc2)C12C(=O)c1cccc3cccc2c13` (stereo not shown) [C00003] gave an IC50 [1, 5] of 63.2 ± 3.2 µM, an IC50 [1, 6] of 59.5 ± 4.1 µM and an IC50 [2, 7] of 77.3 ± 4.56 µM. It also gave an IC50 [2, 8] of 52.3 ± 2.2 µM.

With `CC[C@@]1(O)C(=O)OCc2c1cc1n(c2=O)Cc2cc3ccccc3nc2-1` [CPT, Camptothecin] the mortality at 30 μM [3] was ~50%, the “M2 (cells experiencing the apoptotic pathway)” value (A549 cells; [9]) was 48% and the live cells (A549 cells; [9]) was 45%. For the same molecule, the apoptotic cells (A549 cells; [9]) was 9%, the “late apoptotic or early necrosis cells” value (A549 cells; [9]) was 36% and the “cells experiencing the apoptotic pathway” value (A549 cells) was 63%. It also gave a mortality at 30 μM [4] of ~50%.

With `CN1C(Cc2ccc(O)cc2)C([N+](=O)[O-])C(c2cccc([N+](=O)[O-])c2)C12C(=O)c1cccc3cccc2c13` (stereo not shown) [5f, Spiro[acenaphthene-2′.2-pyrrolidin]-1′-one] the “loss of cell viability” value ([1]; highest concentration of 100 μM, 48 h) was 90%.

With `COc1ccc(C2C([N+](=O)[O-])C(Cc3ccc(O)cc3)N(C)C23C(=O)c2cccc4cccc3c24)cc1` (stereo not shown) [C00005] the IC50 [1, 5] was 81.2 ± 3.1 µM and the IC50 [1, 6] was 61.2 ± 4.6 µM.
